Experiments:
[1] = system: glutamate transporters (SLC1A 1–3); assay: Inhibition of the glutamate transporters, general statement; assay type: cell-based, human
Protocol: BPOHP activity was evaluated against the glutamate transporters paralogs within the SLC1A gene family (SLC1A 1–3) as well as at neutral amino acid transporters that share common ligand substrates with the SLC1 family including SLC38A1,2, and 4 (ATA1, ATA2, ATA3) and heteromeric transporters SLC7A10+SLC3A2 (asc-1/4f2). […] Finally, radiolabeled [^3H]D-serine uptake was used to assess the electroneutral SLC7A10+SLC3A2 transporter, in which 10 µM BPOHP had no effect (Figure S3).
High resolution structural models for SLC1A4 and SLC1A5 have been developed. These models reinforce our SLC1A5 homology model derived from the archaeal glutamate transporter. […] While preparing this manuscript, inhibitors of SLC1A5 of a similar design to our alkoxy-hydroxyprolines were reported with ligand-bound high-resolution EM models. These reported EM models help validate our docking solutions with respect to mode of binding within our homology model. We emphasize that our discoveries and modeling of these hydroxyproline/AHPC inhibitors targeting SLC1A4 and SLC1A5, as documented in the public domain [66, 67], predates these reports and is yet to be properly referenced/cited. […] This nonselective SLC1 inhibition, observed with BPOHP, may be attributed to entropic contributions resulting from the biphenyl moiety occupying an adjacent hydrophobic pocket.

SLC1A4 [2] = molecular target: T1, SLC1A4 (Homo sapiens, UniProt P43007); assay: [3H]L-alanine uptake block in oocytes; assay type: cell-based
T1 construct: expressed in transfected cells; host or cells: Xenopus laevis oocytes (cRNA injection)
T1 sequence (P43007 1-532): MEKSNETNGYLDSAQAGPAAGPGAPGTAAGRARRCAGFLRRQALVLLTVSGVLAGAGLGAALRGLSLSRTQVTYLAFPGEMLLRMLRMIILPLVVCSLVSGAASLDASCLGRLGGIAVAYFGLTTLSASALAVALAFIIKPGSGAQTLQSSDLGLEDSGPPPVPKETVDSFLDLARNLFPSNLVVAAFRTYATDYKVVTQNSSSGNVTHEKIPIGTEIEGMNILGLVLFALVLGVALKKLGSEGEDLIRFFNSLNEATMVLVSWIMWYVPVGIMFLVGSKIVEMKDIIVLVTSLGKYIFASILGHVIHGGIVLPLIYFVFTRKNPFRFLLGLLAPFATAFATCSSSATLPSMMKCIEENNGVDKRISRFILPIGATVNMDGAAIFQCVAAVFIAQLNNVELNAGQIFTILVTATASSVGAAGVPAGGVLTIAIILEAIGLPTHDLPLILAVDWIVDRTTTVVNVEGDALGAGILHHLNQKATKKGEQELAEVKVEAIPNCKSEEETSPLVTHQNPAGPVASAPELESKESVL
Protocol: (§1) Uptake was halted by washing 3 times with 4 °C ND96 buffer. Oocytes were then lysed in 0.1% Triton X-100, and radioactivity was counted via liquid scintillation. Dose response curves were generated by fitting fractional inhibition (I) to the expression I = Imax × [inhibitor]/([inhibitor] + IC50).

SLC1A4 [3] = molecular target: T1, SLC1A4; assay: [3H]L-alanine heteroexchange (trans-stimulation) in preloaded oocytes; assay type: cell-based; conditions: 3 µM BPOHP, 1 mM L-alanine
Protocol: as §1

SLC1A5 = molecular target: T2, SLC1A5 (Mus musculus, UniProt P51912); assay: as above; assay type: cell-based; conditions: 3 µM BPOHP, 1 mM L-alanine
T2 construct: expressed in transfected cells; host or cells: Xenopus laevis oocytes (cRNA injection)
T2 sequence (P51912 1-553): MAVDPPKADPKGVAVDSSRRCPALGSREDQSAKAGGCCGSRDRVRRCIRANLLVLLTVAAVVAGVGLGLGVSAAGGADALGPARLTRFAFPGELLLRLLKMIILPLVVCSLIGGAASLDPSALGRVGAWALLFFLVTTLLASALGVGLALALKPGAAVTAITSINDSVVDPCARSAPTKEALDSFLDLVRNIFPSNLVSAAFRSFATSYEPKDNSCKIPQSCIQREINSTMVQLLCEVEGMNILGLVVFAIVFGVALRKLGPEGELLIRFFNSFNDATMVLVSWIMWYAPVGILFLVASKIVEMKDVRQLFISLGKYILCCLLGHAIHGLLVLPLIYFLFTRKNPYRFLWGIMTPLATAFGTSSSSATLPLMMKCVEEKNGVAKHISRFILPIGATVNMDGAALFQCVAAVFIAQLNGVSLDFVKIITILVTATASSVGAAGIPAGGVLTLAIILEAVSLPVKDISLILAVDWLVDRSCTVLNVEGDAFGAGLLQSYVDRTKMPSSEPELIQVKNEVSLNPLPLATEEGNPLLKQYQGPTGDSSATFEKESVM
Protocol: as §1

[4] = molecular target: T3, SLC3A2 (4f2) injected alone (Homo sapiens, UniProt P08195); assay: [3H]D-serine uptake in oocytes; assay type: cell-based; conditions: 10 µM BPOHP
T3 construct: expressed in transfected cells; host or cells: Xenopus laevis oocytes (cRNA injection)
T3 sequence (P08195 1-529): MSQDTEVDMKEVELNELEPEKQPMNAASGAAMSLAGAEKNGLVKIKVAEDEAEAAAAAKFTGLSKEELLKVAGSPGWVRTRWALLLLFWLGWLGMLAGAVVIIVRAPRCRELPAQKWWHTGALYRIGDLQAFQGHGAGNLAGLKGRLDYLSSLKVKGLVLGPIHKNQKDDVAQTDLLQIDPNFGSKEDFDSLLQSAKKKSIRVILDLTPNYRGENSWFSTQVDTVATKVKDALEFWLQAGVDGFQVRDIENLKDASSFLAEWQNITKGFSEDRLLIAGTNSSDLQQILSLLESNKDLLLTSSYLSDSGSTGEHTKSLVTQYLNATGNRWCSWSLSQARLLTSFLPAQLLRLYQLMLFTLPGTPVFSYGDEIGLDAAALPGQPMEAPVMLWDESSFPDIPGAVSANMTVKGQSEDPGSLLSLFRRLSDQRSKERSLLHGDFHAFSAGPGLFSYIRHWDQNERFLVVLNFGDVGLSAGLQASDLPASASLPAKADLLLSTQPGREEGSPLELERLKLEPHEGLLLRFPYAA
Protocol: Figure SM-3A. Representative traces showing 100µM L-Ala currents and co-application of 3µM BPOHP (black bar) with no effect on SLC38A neutral amino acid transporters SLC38A1(ATA1), SLC38A2 (ATA2), and SLC38A4 (ATA3). SM-3B. [3H]D-serine uptake (100nM) in SLC1A4 is blocked by BPOHP (10µM), however, [ 3H]D-serine uptake by co -expressed SLC7A10+SLC3A2 (asc1+4F2) nor SLC3A2 (4f2) expressed (injected) alone was blocked by application of 10µM BPOHP.
Figure SM-4. Tosic acid approach to compound 12c. (i) Tosylic acid 0.1M in THF 60◦C. (ii) Phenol and NaH in DCM, 40◦C under argon balloon (iii) 10% Pd/C (10% w/eq.), H2, MeOH, H2O, […]
S.Figure 3 A. Representative traces showing 100uM L-Ala currents and co-application of 3uM BPOHP (black bar) with no effect on SLC38A neutral amino acid transporters SLC38A1(ATA1), SLC38A2 (ATA2), and SLC38A4 (ATA3). B. [3H]D-serine uptake (100nM) in SLC1A4 is blocked by BPOHP (10uM), but not the H3D-serine uptake by […]

IC50 (SLC1A4 [2]): 128 nM
[3H]L-alanine exchange (SLC1A4 [3]): No exchange was detected
[3H]L-alanine exchange (SLC1A5): No exchange was detected
effect on [3H]D-serine uptake [4]: no effect
SMILES: O=C(O)[C@H]1NC[C@@H](OCc2ccc(-c3ccccc3)cc2)[C@@H]1O [14e]
inhibition of the glutamate transporters [1]: low micromolar range

— article PMC11123841, “Discovery and Synthesis of Hydroxy-L-Proline Blockers of the Neutral Amino Acid Transporters SLC1A4 (ASCT1) and SLC1A5 (ASCT2)” (Molecules, 2024)
